Source: paper PMC12143354, “Determining sex differences in aortic valve myofibroblast responses to drug combinations identified using a digital medicine platform” (Science Advances, 2025)
Like-named read-outs stand apart in the source and are kept apart here.

Experiments:
female VICs [1] = test: percent αSMA GMI reduction, female VICs on stiff hydrogels; format: cell-based, pig; conditions: for EC1 / EC2: from dose response curves; for Percent αSMA reduction, Average: n = 3-4 gels
Experimental: (§1) Glass-bottom 96-well plates (Cellvis) were placed in an autoclave jar with a scintillation vial containing 100 μl of mercaptopropyltrimethoxysilane (MPTS; Sigma-Aldrich). The autoclave jar was then lightly sealed and placed inside an oven at 60°C for a minimum of 6 hours. The autoclave jar was opened in a chemical fume hood, and the vapor-deposited well plate was stored for up to 2 hours until ready for use. Eight-arm 20-kDa PEG-norbornene (PEG-Nb) was formed as outlined previously ([76]). A 7% (w/v) PEG-Nb hydrogel precursor solution was formed by combining phosphate-buffered saline (PBS), 20-kDa PEG-Nb at a 0.98:1 thiol-to-ene ratio, 5-kDa PEG-dithiol (Jenkem), CRGDS cell binding motif (Bachem), and lithium phenyl-2,4,6-trimethyl-benzoylphosphinate (Thermo Fisher Scientific). An EPMotion 5073l automated liquid handling system (Eppendorf) was used to pipet 7 μl of the hydrogel precursor solution into the center of each well of the vapor-deposited 96-well glass-bottom plate. The well plate with the hydrogel precursor solution was then stamped using a custom 96-well plate stamp, inverted, and cured under ultraviolet light at 10 mW/cm^2 for 3 min to induce gelation. The stamp was carefully removed by hand, and the newly formed gels were sterilized with a solution of 5% isopropyl alcohol (Thermo Fisher Scientific) in PBS for 20 min. Gels were then washed twice with PBS and stored in VIC media composed of Media199 (Life Technologies), 1% fetal bovine serum (FBS, Life Technologies), amphotericin B (1 μg/ml; Thermo Fisher Scientific), penicillin (50 U/ml; Sigma-Aldrich), and streptomycin (50 μg/ml; Sigma-Aldrich). Last, the hydrogels were placed in an incubator at 37°C with 5% carbon dioxide for up to 24 hours until experimental use.
(§2) Media changes were performed every 24 to 48 hours until cells reached ~80% confluency. […] The media solution was then aspirated, and VICs were resuspended with 1 ml of 1% FBS media. VICs were counted with an automated hemocytometer to calculate the volume of cell solution to add to each well to seed at 6400 cells per well (20,000 cells/cm^2) for TCPS and hydrogel experiments. For all experiments, VICs were seeded with 1% FBS media containing the specified drug doses and incubated at 37°C with 5% carbon dioxide with media changes every 48 to 72 hours if needed.
(§3) Drug stock solutions were discarded after two thaw cycles or after 10 months of storage. For all experiments, drug dilutions were calculated and added to VIC media to ensure that total DMSO levels remained below 1% for cytotoxicity and αSMA reduction curve fitting experiments and below 0.3% for drug combination experiments.
(§4) After culture on hydrogels or TCPS, the spent drug-containing media were removed, and VICs were immersed in a 4% paraformaldehyde solution in PBS for 20 min and then permeabilized for 1 hour with 0.1% Triton X-100 (Thermo Fisher Scientific) in PBS. Cells were then blocked with 5% bovine serum albumin in PBS for 1 hour at room temperature or over the weekend at 4°C. […] Last, VICs were washed once with PBS and then stored in PBS at 4°C until imaging. Gel samples were imaged in situ using a Nikon Eclipse Ti2-E and analyzed using an automated MATLAB code to quantify the αSMA gradient mean intensities and caspase-3 intensities normalized to cell mask for each cell. A minimum of 100 cells were used per gel with multiple gels used per condition.
(§5) Curve fitting for VIC percent αSMA reduction and cytotoxicity was performed using GraphPad Prism 10 (GraphPad Software Inc). For each inhibitor, the nonlinear regression tool in Prism was used to estimate the response against the agonist by fitting the top, bottom, EC50/CC50, and hillslope to each dataset. After 2 days of culture, the percent αSMA reduction was calculated using the average αSMA gradient mean intensities of the control relative to the drug condition using Eq. 1 %αSMA reduction=100×(Control−Drug Condition/Control) (1)

male VICs [2] = tested on: male VICs
Experimental: as §4
(§6) Percent cytotoxicity was determined by designating each cell as alive or dead using caspase-3 intensity normalized to cell mask intensity, which was thresholded using a positive and negative control for cell death [10 nM staurosporine (Cell Signaling Technologies) or 1% FBS media]. The bottom value for every curve fit was set to 0, and the top value was constrained to a maximum of 100 to indicate the maximum possible effect of the drug. […] Absolute EC and CC values for % αSMA reduction and percent cytotoxicity were quantified using the top, bottom, EC50/CC50, and hillslope values estimated from the curve fits generated in GraphPad Prism (GraphPad Software Inc).

female VICs [3] = tested on: female VICs
Experimental: as §4, §6

male VICs [4] = test: percent αSMA GMI reduction, male VICs on stiff hydrogels; format: cell-based, pig; conditions: male VICs; for EC1 / EC2: from dose response curves; for Percent αSMA reduction, Average: n = 3-4 gels
Experimental: as §1, §2, §3, §4, §5

male VICs [5] = test: percent αSMA GMI reduction by immunofluorescent staining, male VICs on TCPS; format: cell-based, pig; conditions: for reduction in αSMA GMI, initial screen: male VICs on TCPS, dosing range 10^-7 to 10^3 μM; for Percent αSMA reduction, Average: male VICs, n = 3 wells
Experimental: (§7) VICs were collected by aspirating off spent media, washing with PBS (Sigma-Aldrich) for 1 min, then incubating with 1× trypsin (Life Technologies) for 3 min. Trypsin was neutralized with an equal volume of 15% FBS growth media and centrifuged for 5 min at 0.2g. The media solution was then aspirated, and VICs were resuspended with 1 ml of 1% FBS media. VICs were counted with an automated hemocytometer to calculate the volume of cell solution to add to each well to seed at 6400 cells per well (20,000 cells/cm^2) for TCPS and hydrogel experiments. […] For each inhibitor, the nonlinear regression tool in Prism was used to estimate the response against the agonist by fitting the top, bottom, EC50/CC50, and hillslope to each dataset.

female VICs [6] = test: percent αSMA GMI reduction by immunofluorescent staining, female VICs on TCPS; format: cell-based, pig; conditions: for reduction in αSMA GMI, initial screen: female VICs on TCPS, dosing range 10^-7 to 10^3 μM; for Percent αSMA reduction, Average: female VICs, TCPS, n = 3 wells
Experimental: as §7

female VICs [7] = test: percent αSMA GMI reduction, female VICs on soft hydrogels; format: cell-based, pig; conditions: n = 3 gels
Text: (§8) Last, we tested the ability of […]-designed combinations to prevent myofibroblast activation in VICs cultured on other substrates beyond stiff hydrogels. […] Six male-optimized combinations were effective in preventing male VIC myofibroblast activation (Fig. 7K). […] Single-drug monotherapies used in the top male and female drug combinations were confirmed to have a minimal effect on male and female VIC αSMA GMI on soft hydrogels (table S14). […] After aspirating off the spent media, VICs were resuspended in 5 ml of fresh 15% FBS media and seeded on T25 Falcon tissue culture-treated flasks (Thermo Fisher Scientific). […] VICs were collected by aspirating off spent media, washing with PBS (Sigma-Aldrich) for 1 min, then incubating with 1× trypsin (Life Technologies) for 3 min. Trypsin was neutralized with an equal volume of 15% FBS growth media and centrifuged for 5 min at 0.2g. The media solution was then aspirated, and VICs were resuspended with 1 ml of 1% FBS media. VICs were counted with an automated hemocytometer to calculate the volume of cell solution to add to each well to seed at 6400 cells per well (20,000 cells/cm^2) for TCPS and hydrogel experiments. […] For each inhibitor, the nonlinear regression tool in Prism was used to estimate the response against the agonist by fitting the top, bottom, EC50/CC50, and hillslope to each dataset.

male VICs [8] = test: percent αSMA GMI reduction, male VICs on soft hydrogels; format: cell-based, pig; conditions: n = 3 gels
Text: as §8

[9] = male VICs, stiff hydrogels, from dose response curves
[10] = female VICs, stiff hydrogels, from dose response curves

SMILES	EC1 (female VICs [1]) [µM]	EC2 (female VICs [1]) [µM]	Percent αSMA reduction, Average (female VICs [1]; single drug at level 1 dose) [%]	Percent αSMA reduction, Average (female VICs [1]; single drug at level 2 dose) [%]	EC1 (male VICs [4]) [µM]	EC2 (male VICs [4]) [µM]	Percent αSMA reduction, Average (male VICs [4]; single drug at level 1 dose) [%]	Percent αSMA reduction, Average (male VICs [4]; single drug at level 2 dose) [%]	reduction in αSMA GMI, initial screen (male VICs [5]) [%]	Percent αSMA reduction, Average (male VICs [5]; TCPS, single drug at L2 dose) [%]	reduction in αSMA GMI, initial screen (female VICs [6]) [%]	Percent αSMA reduction, Average (female VICs [6]; single drug at L2 dose) [%]	Percent αSMA reduction, Average (female VICs [7]; single drug at L2 dose) [%]	Percent αSMA reduction, Average (male VICs [8]; single drug at L2 dose) [%]	CC1 (male VICs [2]; male, pig) [µM]	CC2 (male VICs [2]; male, pig) [µM]	CC25 (percent cytotoxicity) (male VICs [2]; male, pig)	CC1 (female VICs [3]; female, pig) [µM]	CC2 (female VICs [3]; female, pig) [µM]	CC25 (percent cytotoxicity) (female VICs [3]; female, pig) [µM]	other results
Cc1cncc2cccc(S(=O)(=O)N3CCCNC[C@@H]3C)c12 [Combination H1152]	0.0765	0.198	8.04	12.39	1.96	2.82	-5.03	0.66	> 25	-0.09	> 25	2.30	3.37	-5.04	–	–	–	–	–	–	CC25 (percent cytotoxicity) (male VICs [2]; male VICs on stiff gels, n = 3 gels): 6.27 µM; CC1 (male VICs [2]; [9]): 0.162 µM; CC2 (male VICs [2]; [9]): 0.28 µM; CC25 (percent cytotoxicity) (female VICs [3]; female VICs on stiff gels, n = 3 gels): 72.6 µM; CC1 (female VICs [3]; [10]): 0.26 µM; CC2 (female VICs [3]; [10]): 0.806 µM
C[C@@H](N)[C@H]1CC[C@H](C(=O)Nc2ccncc2)CC1 [Combination Y-27632]	1.31	2.81	28.93	22.12	0.558	1.34	0.24	2.37	> 25	–	> 25	-2.07	8.24	–	–	–	–	–	–	–	CC1 (male VICs [2]): 10.8 µM; CC2 (male VICs [2]): 19.9 µM; CC25 (percent cytotoxicity) (male VICs [2]): 224 µM; CC1 (female VICs [3]): 27.5 µM; CC2 (female VICs [3]): 37.9 µM; CC25 (percent cytotoxicity) (female VICs [3]): 135 µM; sex difference in efficacy (male versus female EC20) (male VICs [5]; TCPS, unpaired two-tailed t test, P < 0.05): significantly more effective in male VICs relative to female VICs; Percent αSMA reduction, Average (male VICs [5]; TCPS, single drug at L1 dose): 6.48%; Percent αSMA reduction, Average (female VICs [6]; single drug at L1 dose): 0.37%; Percent αSMA reduction, Average (female VICs [7]; single drug at L1 dose): 3.22%; Percent αSMA reduction, Average (male VICs [8]; single drug at L1 dose): -2.58%
O=c1cc(N2CCOCC2)oc2c(-c3ccccc3)cccc12 [LY294002]	8.63	13.4	9.50	2.75	12.8	17.6	6.86	5.50	> 25	-4.91	> 25	-8.32	11.35	13.23	21.5	25.2	46.9 µM	17.7	21.3	45.2	–
C[S+]([O-])c1ccc(-c2nc(-c3ccncc3)c(-c3ccc(F)cc3)[nH]2)cc1 (stereo not shown) [SB203580]	7.56	14.5	2.35	-6.55	24.8	40.8	5.45	3.67	> 25	–	> 25	–	–	–	0.413	2.18	1,613 uM	29.8	48.9	874	–
